# Literature values as cited in patent US20100179106A1, “MITOCHONDRIAL COMPOSITIONS AND USES THEREOF” (Gencia Corporation, priority 2007, published 2010).
# Assays:
# [1] = set-up: dose or concentration left out as unconfirmed; details: dosages as high as (Harris et al. 1992)
# [2] = tested on: patients with mitochondrial disorders; details: short-term study, creatine supplementation (Tarnopolsky et al. 1997)
# brain slice cultures = details: 20 mM creatine, brain slice cultures (Li et al. 2004)
compound,measurement,setting,value
"CN(CC(=O)O)C(=N)N [creatine, 2-(carbamimidoyl-methyl-amino) acetic acid]",side effects,[1],no reported side effects
same,high-intensity anaerobic and aerobic activities,[2],improved
same,lower-intensity aerobic activities,[2],no effect
same,mitochondrial activity,brain slice cultures,sufficient to stimulate mitochondrial activity
